Data on 15 molecules can be found in article PMC7397336, “5-(4H)-Oxazolones and Their Benzamides as Potential Bioactive Small Molecules” (Molecules, 2020).

In one data set the target is mushroom tyrosinase (Agaricus bisporus, UniProt C7FF04). In words: Tyrosinase inhibition assay. The conditions noted are these: L-Dopa substrate; for inhibition at 100 µM: read-out: ΤyrI% 100 μM (inhibition of mushroom tyrosinase). It is filed as biochemical. Here is the method:
For the in vitro assays, a stock solution (1% DMSO in the appropriate buffer with the tested compound diluted under sonification) was prepared from which several dilutions were made with the appropriate buffer.

Data set [1] is described as follows: Inhibition of linoleic acid lipid peroxidation (AAPH). An excerpt: Azo compounds, like AAPH, generating free radicals through spontaneous thermal decomposition are useful for in vitro studies of free radical production. Production of conjugated diene hydroperoxide by oxidation of sodium linoleate in an aqueous solution is monitored at 234 nm. This assay can be used to follow oxidative changes and to understand the contribution of each tested compound. […] It seems that the presence of moiety Ar (Scheme 1) is mainly correlated with the antioxidant result. The nature of the heteroatom O/S in Ar substituent in the 5-membered oxazolone ring (compounds 2c and 2e) influences the biological response. The replacement of the thienyl group in 2c by a furyl group (2e) leads to a 31% decrease of the antioxidant ability.
Each in vitro experiment was performed at least in triplicate and the standard deviation of absorbance was less than 10% of the mean. For the in vitro assays, a stock solution (1% DMSO in the appropriate buffer with the tested compound diluted under sonification) was prepared from which several dilutions were made with the appropriate buffer.
The AAPH-induced oxidation of linoleic acid measures the ability of an antioxidant to prevent oxidation of linoleic acid sodium salt induced by alkylperoxyl radicals, generated from the water soluble azo compound 2,2′-azobis(2-amidinopropane) dihydrochloride (AAPH). The assay was performed according to our previous publications. Trolox was used as reference compound.

The target of a further data set is T1, soybean lipoxygenase (Glycine max, UniProt P08170).
T1 construct: purchased Sigma Chemical, Co. (St. Louis, MO, USA)
T1 sequence (P08170 1-839): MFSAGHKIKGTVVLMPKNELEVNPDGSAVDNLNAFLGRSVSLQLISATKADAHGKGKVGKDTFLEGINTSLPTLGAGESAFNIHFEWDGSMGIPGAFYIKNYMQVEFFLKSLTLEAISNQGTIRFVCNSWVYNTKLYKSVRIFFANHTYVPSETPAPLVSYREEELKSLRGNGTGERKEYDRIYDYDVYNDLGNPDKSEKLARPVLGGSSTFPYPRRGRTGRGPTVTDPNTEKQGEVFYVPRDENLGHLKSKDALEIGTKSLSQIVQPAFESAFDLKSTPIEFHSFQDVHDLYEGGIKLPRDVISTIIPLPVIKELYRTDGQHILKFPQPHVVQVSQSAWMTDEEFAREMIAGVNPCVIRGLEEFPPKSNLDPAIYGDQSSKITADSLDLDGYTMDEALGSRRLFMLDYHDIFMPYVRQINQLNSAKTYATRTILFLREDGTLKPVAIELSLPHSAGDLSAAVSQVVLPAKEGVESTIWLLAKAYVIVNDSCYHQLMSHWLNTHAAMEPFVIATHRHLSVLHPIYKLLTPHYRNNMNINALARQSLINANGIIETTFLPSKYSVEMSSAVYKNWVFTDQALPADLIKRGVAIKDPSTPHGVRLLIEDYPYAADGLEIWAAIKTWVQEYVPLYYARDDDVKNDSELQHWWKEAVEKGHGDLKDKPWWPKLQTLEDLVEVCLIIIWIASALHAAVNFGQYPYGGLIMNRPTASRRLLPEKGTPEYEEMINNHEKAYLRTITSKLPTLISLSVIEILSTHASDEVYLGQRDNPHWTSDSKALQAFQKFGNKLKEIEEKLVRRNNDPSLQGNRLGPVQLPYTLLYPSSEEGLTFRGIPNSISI
Put plainly: Soybean lipoxygenase inhibition study. It is filed as biochemical. To be noted: for inhibition at 100 µM: read-out: LOX % inhibition 100 μM; for IC50: soybean lipoxygenase, sodium linoleate 0.1 mM, read-out: LOX IC50. As for the experimental part: For the in vitro assays, a stock solution (1% DMSO in the appropriate buffer with the tested compound diluted under sonification) was prepared from which several dilutions were made with the appropriate buffer. DMSO solution of the tested compound (stock solutions 10 mM) was incubated with sodium linoleate (0.1 mM) and 0.2 mL of soybean lipoxygenase solution (1/9 × 10^−4 w/v in saline) at room temperature. The test follows our previous published methods. […] Several concentrations were used to determine the IC50.

Data set [2] has as its system carrageenin-induced rat paw edema. In words: Inhibition of the carrageenin-induced rat paw edema. It is filed as in vivo, Fisher 344 rats. The conditions noted are these: 0.0057 mmol/kg body weight i.p., 3.5 h after carrageenin. As for the experimental part: For the estimation of anti-inflammatory potential of the tested compounds the rat carrageenin induced paw edema assay was employed as a model for acute inflammation. Indomethacin, as a reference drug, and our compounds were administered intraperitoneally in order to ensure systemic response via fast bioavailability, while carrageenin’s intradermal administration, as inflammatory agent, aimed to local response. The development of the edema induced by carrageenin has been described as a biphasic event. The early phase of the inflammatory response, lasting 0.5–1.5 h, is chiefly mediated by histamine and serotonin release inducing hyperalgesia, swelling and redness, while the later phase, lasting 3–6 h, is sustained presumably by prostaglandin release. This model reliably predicts the anti-inflammatory efficacy of the NSAIDs during the second phase, since non-steroidal anti-inflammatory drugs (NSAIDs) present weak activity in the first phase. Therefore, using this protocol we could evaluate our compounds as potential anti-inflammatory agents, as a result of inhibition of prostaglandin amplification.
The animals (Fisher 344 rats), which have been bred in our laboratory, were housed under standard conditions and received a diet of commercial food pellets and water ad libitum during the maintenance but they were entirely fasted during the experiment period. Both sexes were used while females pregnant were excluded. Each group was composed of 6–15 animals. Our studies were in accordance with recognized guidelines on animal experimentation (guidelines for the care and use of laboratory animals published by the Greek Government 160/1991, based on EU regulations 86/609). […]
Edema was induced in the right hind paw of the rats by the intradermal injection of 0.1 mL 2% carrageenin in water we followed our previous published method. […] The change in paw weight was compared with that in control animals (treated with water) and expressed as a percent inhibition of the edema CPE % values. […]

Marks after values point to notes of the source that are not given here.

Sequence of mushroom tyrosinase (G1K3P4 entry or part of it): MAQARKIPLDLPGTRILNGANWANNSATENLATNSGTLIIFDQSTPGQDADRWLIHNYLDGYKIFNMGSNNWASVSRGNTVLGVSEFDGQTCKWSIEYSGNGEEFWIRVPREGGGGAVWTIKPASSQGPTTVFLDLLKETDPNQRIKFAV
Sequence of mushroom tyrosinase (C7FF04 1-392): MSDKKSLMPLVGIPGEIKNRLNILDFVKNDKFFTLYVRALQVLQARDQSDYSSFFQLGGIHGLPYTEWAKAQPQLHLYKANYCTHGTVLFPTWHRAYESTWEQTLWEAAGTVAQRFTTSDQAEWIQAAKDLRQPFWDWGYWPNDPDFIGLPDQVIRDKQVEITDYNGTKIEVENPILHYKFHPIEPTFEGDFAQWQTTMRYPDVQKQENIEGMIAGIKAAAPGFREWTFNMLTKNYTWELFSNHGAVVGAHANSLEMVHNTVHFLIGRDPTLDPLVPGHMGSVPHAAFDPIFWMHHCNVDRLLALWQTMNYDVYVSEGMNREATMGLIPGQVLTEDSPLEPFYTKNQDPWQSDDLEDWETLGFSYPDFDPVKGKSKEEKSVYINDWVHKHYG

Take `O=C1OC(c2ccccc2)=N/C1=C\c1ccccc1` [Compound 2a, (Z)-4-Benzylidene-2-phenyloxazol-5(4H)-one]: at mushroom tyrosinase, the “ΤyrI% 100 μM (inhibition of mushroom tyrosinase)” value is given as “no”. The “AAPH% 100 µM (anti-lipid peroxidation)” value in data set [1] came out at 95%. Besides, the “LOX % inhibition 100 μM” value at soybean lipoxygenase (100 µM) is “no”.
Broadly, the melting point is the temperature, or range, at which the solid turns liquid. Regarding `O=C1OC(c2ccccc2)=N/C1=C\c1ccc(OCc2ccc(Br)cc2)cc1` [Compound 2b, (Z)-4-(4-((4-Bromobenzyl)oxy)benzylidene)-2-phenyloxazol-5(4H)-one], the melting point fell in the range of 199 to 200 °C. Further, the “ΤyrI% 100 μM (inhibition of mushroom tyrosinase)” value at mushroom tyrosinase is listed as “no”. The “AAPH% 100 µM (anti-lipid peroxidation)” value in data set [1] was determined as 79%. Moreover, the “LOX % inhibition 100 μM” value on soybean lipoxygenase (100 µM) is “no”.
In general, inhibition refers to the share of the control response that was lost under treatment. Turning to `O=C1OC(c2ccccc2)=N/C1=C\c1cccs1` [Compound 2c, (Z)-2-Phenyl-4-(thiophen-2-ylmethylene)oxazol-5(4H)-one], the inhibition at 100 µM on mushroom tyrosinase was 16%. The “AAPH% 100 µM (anti-lipid peroxidation)” value in data set [1] is on record as 91%. Also, the “LOX % inhibition 100 μM” value on soybean lipoxygenase (100 µM) is “no”.
`O=C1OC(c2ccccc2)=N/C1=C\c1cccc2ccccc12` [Compound 2d, (Z)-4-(Naphthalen-1-ylmethylene)-2-phenyloxazol-5(4H)-one] displayed a melting point of 169 to 171 °C. Also, the inhibition at 100 µM on mushroom tyrosinase is 5%. Further, the “AAPH% 100 µM (anti-lipid peroxidation)” value in data set [1] is reported as 81%. For the same molecule, the “LOX % inhibition 100 μM” value on soybean lipoxygenase (100 μM) is listed as 49%. For the same molecule, the inhibition at 100 µM on soybean lipoxygenase (100 µM) was < 50%.
For the molecule `O=C1OC(c2ccccc2)=N/C1=C\c1ccco1` [Compound 2e, (Z)-4-(Furan-2-ylmethylene)-2-phenyloxazol-5(4H)-one], on mushroom tyrosinase, the inhibition at 100 µM was 3%. Moreover, the “AAPH% 100 µM (anti-lipid peroxidation)” value in data set [1] is on record as 60%.
Take `O=C1OC(c2ccccc2)=N/C1=C\c1ccc(Oc2ccccc2)cc1` [Compound 2f, (Z)-4-(4-Phenoxybenzylidene)-2-phenyloxazol-5(4H)-one]: the melting point was found to be 169 °C. In addition, the “AAPH% 100 µM (anti-lipid peroxidation)” value in data set [1] is listed as “no”. Further, the “LOX % inhibition 100 μM” value at soybean lipoxygenase (100 µM) was “no”.
Molecule `O=C(N/C(=C\c1cccs1)C(=O)N1CCOCC1)c1ccccc1` [Compound 3c, (Z)-N-(3-morpholino-3-oxo-1-(thiophen-2-yl)prop-1-en-2-yl)benzamide] registered a melting point of 184 to 186 °C. In addition, the inhibition at 100 µM on mushroom tyrosinase was 7%. For the same molecule, in data set [1], the “AAPH% 100 µM (anti-lipid peroxidation)” value amounted to 93%. Also, on soybean lipoxygenase (100 μM), the “LOX % inhibition 100 μM” value came out at 39%. Further, at soybean lipoxygenase (100 µM), the inhibition at 100 µM is < 50%.
Molecule `O=C(N/C(=C\c1cccc2ccccc12)C(=O)N1CCOCC1)c1ccccc1` [Compound 3d, (Z)-N-(3-morpholino-1-(naphthalen-1-yl)-3-oxoprop-1-en-2-yl)benzamide] returned a melting point of 135 to 137 °C. Moreover, in data set [1], the “AAPH% 100 µM (anti-lipid peroxidation)” value was 91%. At soybean lipoxygenase (100 μM), the “LOX % inhibition 100 μM” value is listed as 37%. For the same molecule, on soybean lipoxygenase (100 µM), the inhibition at 100 µM is < 50%.
A word on the IC50: it is the concentration that inhibits the measured activity by half. As to `O=C(N/C(=C\c1ccc(OCc2ccc(Br)cc2)cc1)C(=O)N1CCN(C(=O)/C(=C/c2ccc(OCc3ccc(Br)cc3)cc2)NC(=O)c2ccccc2)CC1)c1ccccc1` [Compound 4b, N,N′-((1Z,1′Z)-piperazine-1,4-diylbis(1-(4-((4-bromobenzyl)oxy)phenyl)-3-oxoprop-1-ene-3,2-diyl))-bis-benzamide], the melting point fell in the range of 285 to 286 °C. For the same molecule, the inhibition at 100 µM at mushroom tyrosinase is 12%. Further, the “AAPH% 100 µM (anti-lipid peroxidation)” value in data set [1] is 99%. Moreover, on soybean lipoxygenase, the IC50 was 85 µM.
The corresponding values for `O=C(N/C(=C\c1cccc2ccccc12)C(=O)N1CCN(C(=O)/C(=C/c2cccc3ccccc23)NC(=O)c2ccccc2)CC1)c1ccccc1` [Compound 4d, N,N′-((1Z,1′Z)-piperazine-1,4-diylbis(1-(naphthalen-1-yl)-3-oxoprop-1-ene-3,2-diyl))bisbenzamide] are 282 to 284 °C, 28%, 90% and 65 µM.
The like results for `O=C(N/C(=C\c1ccco1)C(=O)N1CCN(C(=O)/C(=C/c2ccco2)NC(=O)c2ccccc2)CC1)c1ccccc1` [Compound 4e, N,N′-((1Z,1′Z)-piperazine-1,4-diylbis(1-(furan-2-yl)-3-oxoprop-1-ene-3,2-diyl))bisbenzamide] were, in that order, 293 to 295 °C, 17%, 83% and 88 µM.
On to `O=C(N/C(=C\c1cccs1)C(=O)N1CCCCC1)c1ccccc1` [Compound 5c, (Z)-N-(3-Oxo-3-(piperidin-1-yl)-1-(thiophen-2-yl)prop-1-en-2-yl)benzamide], for which the melting point is 181 to 182 °C. Also, the inhibition at 100 µM at mushroom tyrosinase was 13%. The “AAPH% 100 µM (anti-lipid peroxidation)” value in data set [1] came out at 72%. Moreover, the “LOX % inhibition 100 μM” value on soybean lipoxygenase (100 μM) is on record as 41%. Besides, at soybean lipoxygenase (100 µM), the inhibition at 100 µM is < 50%.
The corresponding values for `CCOC(=O)/C(=C/c1cccs1)NC(=O)c1ccccc1` [Compound 6c, (Z)-Ethyl 2-benzamido-3-(thiophen-2-yl)acrylate] are 156 to 159 °C, 5%, 59%, 36% and < 50%.
For `COc1ccc2c(c1)c(CC(=O)O)c(C)n2C(=O)c1ccc(Cl)cc1` [Indomethacin, reference compound], in data set [2], the “CPE (%) inhibition of carrageenin-induced rat paw edema” value is recorded as 58 ** %.
Turning to `Cc1c(C)c2c(c(C)c1O)CCC(C)(C(=O)O)O2` (centres unmarked) [Trolox, reference compound], in data set [1], the “AAPH% 100 µM (anti-lipid peroxidation)” value is reported as 93%.
